Series [1] relates to tubulin. The experiment in a line: Fluorescence-based microtubule polymerisation assay. In kind it is biochemical. The following applies: rate at 1 μM MMAF set at 100%. How it is done: Tubulin polymerization was investigated using the “Fluorescence-based Microtubule Polymerisation Assay Kit” from Cytoskeleton (Denver, Colo., USA; order number: BK011). With this assay, GTP is added to unpolymerized tubulin, allowing polymerization to take place spontaneously. The assay is based on the binding of the fluorophore 4′,6-diamidino-2-phenylindole (DAPI) to tubulin. Free and bound DAPI can be differentiated on the basis of different emission spectra.
In addition to the buffer control, paclitaxel, with a polymerization-increasing effect, and vinblastin, with a polymerization inhibiting effect, were run additionally as assay controls. Measurement was carried out using 96-well plates with a half base area. The kinetics of the tubulin polymerization were monitored in a Fluorimeter at 37° C. for 1 hour. The excitation wavelength was 355 nm, and emission was monitored at 460 nm. For the region of linear increase within the first 10 minutes, a calculation was made of the change in fluorescence per minute (ΔF/min), which represents the polymerization rate of the microtubuli. The potency of the test substances was quantified on the basis of their respective reduction of the polymerization rate. Table 6 below gives data for the influence of representative working examples on tubulin polymerization.

Series [2] addresses T1, P-glycoprotein (P-gp) (Homo sapiens, UniProt P08183).
T1 construct: expressed in transfected cells; host or cells: LLC-PK1 (pig kidney) cells transfected with human MDR1 (L-MDR1)
Description: Flux assay for P-gp substrate properties in L-MDR1 cells. The series is classed as in vitro ADME. The following applies: L-MDR1 cells (P-gp overexpressing LLC-PK1), 2 hours incubation. On the procedure:
The substrate properties of a substance for P-gp (ABCB1) were determined by means of a flux assay using LLC-PK1 cells which overexpress P-gp (L-MDR1 cells) [A. H. Schinkel et al., J. Clin. Invest. 96, 1698-1705 (1995)]. For this purpose, the LLC-PK1 cells or L-MDR1 cells were cultured on 96-well filter plates for 3-4 days. For determination of the permeation, the respective test substance, alone or in the presence of an inhibitor (such as Ivermectin or Verapamil, for example), was applied in a HEPES buffer to the cells either apically (A) or basally (B) and incubated for 2 hours. After 0 hours and after 2 hours, samples were taken from the cis and trans compartments. The samples were separated by HPLC using reverse phase columns. The HPLC system was coupled via a Turbo Ion Spray Interface to a Triple Quadropole mass spectrometer API 3000 (Applied Biosystems Applera, Darmstadt, Germany). The permeability was evaluated on the basis of a Papp value which was calculated using the formula published by Schwab et al. [D. Schwab et al., J. Med. Chem. 46, 1716-1725 (2003)].
Table 8 below lists permeability data for representative working examples from this assay, which was carried out in L-MDR1 cells: […]

Series [3] in a line: Flux assay using Caco-2 cells (cell permeability). In kind it is in vitro ADME. The conditions noted are these: human, 2 hours incubation. How it is done: The cell permeability of a substance can be investigated by means of in vitro testing in a flux assay using Caco-2 cells [M. D. Troutman and D. R. Thakker, Pharm. Res. 20 (8), 1210-1224 (2003)]. For this purpose, the cells were cultured for 15-16 days on 24-well filter plates. For the determination of permeation, the respective working example was applied in a HEPES buffer to the cells either apically (A) or basally (B) and incubated for 2 hours. After 0 hours and after 2 hours, samples were taken from the cis and trans compartments. The samples were separated by HPLC (Agilent 1200, Böblingen, Germany) using reverse phase columns. The HPLC system was coupled via a Turbo Ion Spray Interface to a Triple Quadropol mass spectrometer API 4000 (Applied Biosystems Applera, Darmstadt, Germany). The permeability was evaluated on the basis of a Papp value, which was calculated using the formula published by Schwab et al. [D. Schwab et al., J. Med. Chem. 46, 1716-1725 (2003)].

T1 sequence (P08183 whole entry): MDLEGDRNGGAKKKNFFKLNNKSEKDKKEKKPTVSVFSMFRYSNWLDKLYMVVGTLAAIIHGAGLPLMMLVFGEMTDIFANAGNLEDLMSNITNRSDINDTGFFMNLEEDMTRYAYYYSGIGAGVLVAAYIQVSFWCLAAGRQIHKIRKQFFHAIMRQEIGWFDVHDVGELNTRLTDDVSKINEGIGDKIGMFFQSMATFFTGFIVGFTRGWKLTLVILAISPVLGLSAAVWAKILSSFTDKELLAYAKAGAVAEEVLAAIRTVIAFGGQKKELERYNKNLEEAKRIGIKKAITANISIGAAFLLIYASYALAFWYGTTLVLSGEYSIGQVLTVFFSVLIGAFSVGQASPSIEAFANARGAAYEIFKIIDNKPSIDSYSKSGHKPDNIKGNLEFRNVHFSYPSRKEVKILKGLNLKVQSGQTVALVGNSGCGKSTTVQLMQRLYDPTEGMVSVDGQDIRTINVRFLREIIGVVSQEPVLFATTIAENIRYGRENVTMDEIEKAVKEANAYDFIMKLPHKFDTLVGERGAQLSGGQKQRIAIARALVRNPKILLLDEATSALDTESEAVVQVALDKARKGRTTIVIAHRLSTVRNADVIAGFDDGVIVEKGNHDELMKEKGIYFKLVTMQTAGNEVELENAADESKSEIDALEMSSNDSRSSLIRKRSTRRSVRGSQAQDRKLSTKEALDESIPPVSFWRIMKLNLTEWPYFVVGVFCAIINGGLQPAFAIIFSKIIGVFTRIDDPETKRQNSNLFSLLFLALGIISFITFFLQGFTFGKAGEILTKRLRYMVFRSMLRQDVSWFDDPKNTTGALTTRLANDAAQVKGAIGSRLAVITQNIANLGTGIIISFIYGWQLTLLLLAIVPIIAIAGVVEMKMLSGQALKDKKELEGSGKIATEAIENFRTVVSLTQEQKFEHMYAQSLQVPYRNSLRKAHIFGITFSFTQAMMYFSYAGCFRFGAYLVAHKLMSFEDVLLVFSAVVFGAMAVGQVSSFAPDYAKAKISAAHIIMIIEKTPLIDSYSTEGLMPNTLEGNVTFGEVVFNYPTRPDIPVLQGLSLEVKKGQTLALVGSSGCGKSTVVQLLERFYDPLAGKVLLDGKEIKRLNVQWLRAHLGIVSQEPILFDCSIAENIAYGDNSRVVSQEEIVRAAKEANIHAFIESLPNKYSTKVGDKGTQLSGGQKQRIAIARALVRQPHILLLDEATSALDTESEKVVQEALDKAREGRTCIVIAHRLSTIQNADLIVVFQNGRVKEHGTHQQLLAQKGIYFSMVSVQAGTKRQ

On to `CC[C@H](C)[C@@H]([C@@H](CC(=O)N1CCC[C@H]1[C@H](OC)[C@@H](C)C(=O)N[C@@H](Cc1c[nH]c2ccccc12)C(=O)O)OC)N(C)C(=O)[C@@H](NC(=O)[C@H](C(C)C)N(C)CCCC(=O)NNC(=O)CCCCCN1C(=O)CC(SC[C@H](N)C(=O)O)C1=O)C(C)C` (stereo partly drawn) [Example 22, N-(4-{2-[6-(3-{[(2R)-2-Amino-2-carboxyethyl]sulphanyl}-2,5-dioxopyrrolidin-1-yl)hexanoyl]hydrazino}-4-oxobutyl)-N-methyl-L-valyl-N-[(3R,4S,5S)-1-{(2S)-2-[(1R,2R)-3-{[(1S)-1-carboxy-2-(1H-indol-3-yl)ethyl]amino}-1-methoxy-2-methyl-3-oxopropyl]pyrrolidin-1-yl}-3-methoxy-5-methyl-1-oxoheptan-4-yl]-N-methyl-L-valinamide], for which the “Tubulin polymerization in the presence of toxophore” value in series [1] (toxophore 1 μM) stood at 109%; in series [1] (toxophore 10 μM) it was 27%. In addition, the “Papp (B-A)” value in series [2] is 0.4 ×10⁻⁶ cm/s. Moreover, the Papp B→A (commonly how fast a substance crosses the layer from the basolateral side) at 2 h in series [3] came out at 0.2 ×10⁻⁶ cm/s.

These data come from patent US20150023989A1, “NEW ANTIBODY DRUG CONJUGATES (ADCS) AND THE USE THEREOF” (SEATTLE GENETICS, INC., priority 2011, published 2015).
